Calls of active or inactive are those of the source. No cut-off for these calls is given here.
How the values were obtained:
[1] = Partition coefficient, log P assessed as retention time; type: physicochemical; details: octanol/water
[2] = system: T-24; experiment: Suppression of glycosaminoglycan production in T24 cells at 0.1 mM; type: functional, cell-based; details: Homo sapiens
[3] = system: T-24; experiment: Suppression of proteoglycan production in T24 cells at 0.1 mM; type: functional, cell-based; details: Homo sapiens

| Activity [1] | Compound | Activity [2] | Activity [3] |
| --- | --- | --- | --- |
| 17.73 min | Oc1ccc2cc(O[C@@H]3OC[C@@H](O)[C@H](O)[C@H]3O)ccc2c1 |  |  |
| 43.4 min | Oc1cc2ccc(O[C@@H]3OC[C@@H](O)[C@H](O)[C@H]3O)cc2cc1COCc1c2ccccc2cc2ccccc12 |  |  |
| 38.48 min | CN(C)c1cccc2c(S(=O)(=O)Oc3ccc4cc(O[C@@H]5OC[C@@H](O)[C@H](O)[C@H]5O)ccc4c3)cccc12 | Active | Active |
